Columns and labels:
BA/F3-FLT3-ITD + D835Y = target: T1, BA/F3-FLT3-ITD + D835Y (Homo sapiens, UniProt P36888, D835Y, cells depend on it, form not given); test: Engineered BA/F3 cell growth assay, FLT3 ITD/D835Y; assay type: cell-based, murine; conditions: 3 d growth
T1 sequence (P36888 with tags, fused parts or gaps INS600HVDFREYEYD/D835Y): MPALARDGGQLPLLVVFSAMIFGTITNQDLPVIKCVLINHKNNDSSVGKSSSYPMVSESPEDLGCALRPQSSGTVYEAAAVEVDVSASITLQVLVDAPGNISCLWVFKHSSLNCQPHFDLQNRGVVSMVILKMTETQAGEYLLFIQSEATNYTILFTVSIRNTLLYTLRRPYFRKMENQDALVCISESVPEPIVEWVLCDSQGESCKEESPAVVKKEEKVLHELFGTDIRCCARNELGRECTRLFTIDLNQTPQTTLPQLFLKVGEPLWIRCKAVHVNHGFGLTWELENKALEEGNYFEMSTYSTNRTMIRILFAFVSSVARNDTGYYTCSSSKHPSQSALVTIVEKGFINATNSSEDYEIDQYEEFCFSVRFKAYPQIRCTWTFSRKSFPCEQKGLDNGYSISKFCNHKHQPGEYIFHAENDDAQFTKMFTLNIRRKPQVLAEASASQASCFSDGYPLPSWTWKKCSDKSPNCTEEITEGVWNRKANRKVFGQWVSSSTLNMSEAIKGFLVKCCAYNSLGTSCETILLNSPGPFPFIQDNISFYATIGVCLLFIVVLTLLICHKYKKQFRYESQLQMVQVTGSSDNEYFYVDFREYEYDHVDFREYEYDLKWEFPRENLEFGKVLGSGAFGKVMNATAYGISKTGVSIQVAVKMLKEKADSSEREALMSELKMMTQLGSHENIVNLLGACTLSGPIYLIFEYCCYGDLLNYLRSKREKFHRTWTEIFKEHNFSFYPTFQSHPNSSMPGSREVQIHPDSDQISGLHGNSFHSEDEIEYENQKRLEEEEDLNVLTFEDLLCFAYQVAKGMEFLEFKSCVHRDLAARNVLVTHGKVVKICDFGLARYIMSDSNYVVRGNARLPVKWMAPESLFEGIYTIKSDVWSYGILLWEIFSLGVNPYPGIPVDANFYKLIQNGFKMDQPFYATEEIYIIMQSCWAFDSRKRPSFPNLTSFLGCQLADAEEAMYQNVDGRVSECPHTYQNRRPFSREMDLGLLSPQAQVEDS
Method in brief: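 Murine Ba/F3 cells transfected with full-length FLT3 ITD/D835Y, grown without IL-3 so growth depends on FLT3. Seeded at 1×10^4 cells/well, 8-point 1:3 series to 1 μM top (0.2% DMSO), 3 days at 37 °C. CellTiter-Glo luminescence (ATP) versus concentration gave IC50.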

[1] = tested on: MOLM-14 F691L (endogenous FLT3 ITD and transfected FLT3 F691L); test: MOLM-14 F691L cell proliferation assay (CellTiter-Glo); assay type: cell-based; conditions: Homo sapiens, MOLM-14, 72 h; 3 d growth, GMean
Method in brief: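 MOLM-14 cells (FLT3 ITD) carrying D835Y or F691L, 1×10^4 cells/well, eight 1:3 dilutions from 1 μM final, 0.2% DMSO, 3 days at 37 °C, 5% CO2. Viability by CellTiter-Glo luminescence (ATP content); IC50 from concentration-response.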

Structure (SMILES)	GI50 (BA/F3-FLT3-ITD + D835Y) [µM]	IC50 [1] [µM]
Cn1cc(Nc2ncc(-c3ccc(CC(=O)Nc4cnnc(Cl)c4)cc3)cn2)cn1 [Compound P-0151, N-(6-chloropyridazin-4-yl)-2-[4-[2-[(1-methylpyrazol-4-yl)amino]pyrimidin-5-yl]phenyl]acetamide]	0.0001 to 10	
COc1cc(NC(=O)Cc2ccc(-c3cnc(Nc4cnn(C)c4)nc3)cc2)ccn1 [Compound P-0153, N-(2-methoxy-4-pyridyl)-2-[4-[2-[(1-methylpyrazol-4-yl)amino]pyrimidin-5-yl]phenyl]acetamide]	0.0001 to 10	
Cn1cnc(Nc2ncc(-c3ccc(CC(=O)Nc4cnc(F)c(C(C)(F)F)c4)cc3F)cn2)c1 [Compound P-0170, N-[5-(1,1-difluoroethyl)-6-fluoro-3-pyridyl]-2-[3-fluoro-4-[2-[(1-methylimidazol-4-yl)amino]pyrimidin-5-yl]phenyl]acetamide]	0.0001 to 10	
Cc1ncc(NC(=O)Cc2ccc(-c3cnc4[nH]nc(C)c4c3)c(F)c2)cc1C(F)(F)F [Compound P-0172, 2-[3-fluoro-4-(3-methyl-1H-pyrazolo[3,4-b]pyridin-5-yl)phenyl]-N-[6-methyl-5-(trifluoromethyl)-3-pyridyl]acetamide]	0.0001 to 10	
Cc1n[nH]c2ncc(-c3cc(F)c(CC(=O)Nc4cncc(C(F)(F)F)c4)cc3F)cc12 [Compound P-0173, 2-[2,5-difluoro-4-(3-methyl-1H-pyrazolo[3,4-b]pyridin-5-yl)phenyl]-N-[5-(trifluoromethyl)-3-pyridyl]acetamide]	0.0001 to 10	
COc1ncc(NC(=O)Cc2ccc(-c3cnc4[nH]nc(C)c4c3)c(F)c2)cc1C(F)(F)F [Compound P-0174, 2-[3-fluoro-4-(3-methyl-1H-pyrazolo[3,4-b]pyridin-5-yl)phenyl]-N-[6-methoxy-5-(trifluoromethyl)-3-pyridyl]acetamide]	0.0001 to 10	
Cc1ncc(NC(=O)Cc2cc(F)c(-c3cnc4[nH]nc(C)c4c3)cc2F)cc1C(F)(F)F [Compound P-0175, 2-(2,5-difluoro-4-(3-methyl-1H-pyrazolo[3,4-b]pyridin-5-yl)phenyl)-N-(6-methyl-5-(trifluoromethyl)pyridin-3-yl)acetamide]	0.0001 to 10	
COc1ncc(NC(=O)Cc2cc(F)c(-c3cnc4[nH]nc(C)c4c3)cc2F)cc1C(F)(F)F [Compound P-0176, 2-[2,5-difluoro-4-(3-methyl-1H-pyrazolo[3,4-b]pyridin-5-yl)phenyl]-N-[6-methoxy-5-(trifluoromethyl)-3-pyridyl]acetamide]	0.0001 to 10	
Cc1n[nH]c2ncc(-c3ccc(CC(=O)Nc4cncc(C(F)(F)F)c4)cc3F)cc12 [Compound P-0177, 2-[3-fluoro-4-(3-methyl-1H-pyrazolo[3,4-b]pyridin-5-yl)phenyl]-N-[5-(trifluoromethyl)-3-pyridyl]acetamide]	0.0001 to 10	
COc1ccc(-c2cc3cc(-c4ccc(CC(=O)Nc5cc(C(F)(F)F)ccn5)cc4F)cnc3[nH]2)cn1 [Compound P-0191, 2-[3-fluoro-4-[2-(6-methoxy-3-pyridyl)-1H-pyrrolo[2,3-b]pyridin-5-yl]phenyl]-N-[4-(trifluoromethyl)-2-pyridyl]acetamide]	0.0001 to 10	
N#Cc1cc(-c2cc3cc(-c4ccc(CC(=O)Nc5cc(C(F)(F)F)ccn5)cc4F)cnc3[nH]2)ccn1 [Compound P-0194, 2-[4-[2-(2-cyano-4-pyridyl)-1H-pyrrolo[2,3-b]pyridin-5-yl]-3-fluoro-phenyl]-N-[4-(trifluoromethyl)-2-pyridyl]acetamide]	0.0001 to 10	
N#Cc1ccc(-c2cc3cc(-c4ccc(CC(=O)Nc5cncc(C(F)(F)F)c5)cc4F)cnc3[nH]2)cn1 [Compound P-0195, 2-[4-[2-(6-cyano-3-pyridyl)-1H-pyrrolo[2,3-b]pyridin-5-yl]-3-fluoro-phenyl]-N-[5-(trifluoromethyl)-3-pyridyl]acetamide]	0.0001 to 10	

Continued, values first:

GI50 (BA/F3-FLT3-ITD + D835Y) [µM]	IC50 [1] [µM]	Structure (SMILES)
0.0001 to 10	0.0001 to 10	Cc1cc(-c2cnc3[nH]c(-c4ccccc4)cc3c2)ccc1CC(=O)Nc1cccc(C(F)(F)F)c1 [Compound P-0001, 2-[2-methyl-4-(2-phenyl-1H-pyrrolo[2,3-b]pyridin-5-yl)phenyl]-N-[3-(trifluoromethyl)phenyl]acetamide]
0.0001 to 10	0.0001 to 10	O=C(Cc1ccc(-c2cnc3[nH]c(-c4ccccc4)cc3c2)c(F)c1)Nc1cccc(C(F)(F)F)c1 [Compound P-0003, 2-[3-fluoro-4-(2-phenyl-1H-pyrrolo[2,3-b]pyridin-5-yl)phenyl]-N-[3-(trifluoromethyl)phenyl]acetamide]
0.0001 to 10	0.0001 to 10	O=C(Cc1ccc(-c2cnc3[nH]c(-c4ccccc4)cc3c2)cc1F)Nc1ccnc(C(F)(F)F)c1 [Compound P-0004, 2-[2-fluoro-4-(2-phenyl-1H-pyrrolo[2,3-b]pyridin-5-yl)phenyl]-N-[2-(trifluoromethyl)-4-pyridyl]acetamide]
0.0001 to 10	0.0001 to 10	O=C(Cc1ccc(-c2cnc3[nH]c(-c4ccccc4)cc3c2)cn1)Nc1ccnc(C(F)(F)F)c1 [Compound P-0005, 2-[5-(2-phenyl-1H-pyrrolo[2,3-b]pyridin-5-yl)-2-pyridyl]-N-[2-(trifluoromethyl)-4-pyridyl]acetamide]
0.0001 to 10	0.0001 to 10	Cc1ncc(NC(=O)Cc2ccc(-c3cnc(Nc4cnn(C)c4)nc3)cc2F)cc1C(F)(F)F [Compound P-0091, 2-[2-fluoro-4-[2-[(1-methylpyrazol-4-yl)amino]pyrimidin-5-yl]phenyl]-N-[6-methyl-5-(trifluoromethyl)-3-pyridyl]acetamide]
0.0001 to 10	0.0001 to 10	Cn1cc(Nc2ncc(-c3ccc(CC(=O)Nc4cnc(Cl)c(C(F)(F)F)c4)c(F)c3)cn2)cn1 [Compound P-0092, N-[6-chloro-5-(trifluoromethyl)-3-pyridyl]-2-[2-fluoro-4-[2-[(1-methylpyrazol-4-yl)amino]pyrimidin-5-yl]phenyl]acetamide]
0.0001 to 10	0.0001 to 10	CC(C)c1cc(NC(=O)Cc2ccc(-c3cnc(Nc4cnn(C)c4)nc3)cc2F)ccn1 [Compound P-0094, 2-[2-fluoro-4-[2-[(1-methylpyrazol-4-yl)amino]pyrimidin-5-yl]phenyl]-N-(2-isopropyl-4-pyridyl)acetamide]
0.0001 to 10	0.0001 to 10	Cn1cc(Nc2ncc(-c3ccc(CC(=O)Nc4ccc(C(F)(F)F)nc4)cc3)cn2)cn1 [Compound P-0095, 2-[4-[2-[(1-methylpyrazol-4-yl)amino]pyrimidin-5-yl]phenyl]-N-[6-(trifluoromethyl)-3-pyridyl]acetamide]
0.0001 to 10	0.0001 to 10	Cn1cnc(Nc2ncc(-c3ccc(CC(=O)Nc4cc(C(F)(F)F)ccn4)c(F)c3)cn2)c1 [Compound P-0096, 2-[2-fluoro-4-[2-[(1-methylimidazol-4-yl)amino]pyrimidin-5-yl]phenyl]-N-[4-(trifluoromethyl)-2-pyridyl]acetamide]
0.0001 to 10	0.0001 to 10	Cn1cc(Nc2ncc(-c3ccc(CC(=O)Nc4ccnc(C5CC5)c4)cc3)cn2)cn1 [Compound P-0097, N-(2-cyclopropyl-4-pyridyl)-2-[4-[2-[(1-methylpyrazol-4-yl)amino]pyrimidin-5-yl]phenyl]acetamide]
0.0001 to 10	0.0001 to 10	Cn1cc(Nc2ncc(-c3ccc(CC(=O)Nc4ccnc(C5CC5)c4)c(F)c3)cn2)cn1 [Compound P-0098, N-(2-cyclopropyl-4-pyridyl)-2-[2-fluoro-4-[2-[(1-methylpyrazol-4-yl)amino]pyrimidin-5-yl]phenyl]acetamide]
0.0001 to 10	0.0001 to 10	Cc1ncc(NC(=O)Cc2ccc(-c3cnc(Nc4cn(C)cn4)nc3)cc2F)cc1C(F)(F)F [Compound P-0099, 2-[2-fluoro-4-[2-[(1-methylimidazol-4-yl)amino]pyrimidin-5-yl]phenyl]-N-[6-methyl-5-(trifluoromethyl)-3-pyridyl]acetamide]
0.0001 to 10	0.0001 to 10	Cn1cnc(Nc2ncc(-c3ccc(CC(=O)Nc4cnc(Cl)c(C(F)(F)F)c4)c(F)c3)cn2)c1 [Compound P-0100, N-[6-chloro-5-(trifluoromethyl)-3-pyridyl]-2-[2-fluoro-4-[2-[(1-methylimidazol-4-yl)amino]pyrimidin-5-yl]phenyl]acetamide]
